# Patent publication US11571403B2, “Methods for the treatment of non-alcoholic steatohepatitis” (Eiger Biopharmaceuticals, Inc., priority 2016, dated 2023)
# Experiments:
# [1] = test system: STAM mouse model for NASH; test: Plasma CK-18, STAM mouse NASH model (Example 1); format: in vivo
# Excerpt: (§1) The STAM™ mouse is a model for NASH created by a combination of chemical and dietary interventions in C57BL/6 mice that manifest NASH at about 8 weeks, which progresses to fibrosis at about 12 weeks and then progresses to HCC at about 16 weeks. See, Saito et al., Sci. Rep. 2015, 5:12466.
# (§2) In the study, the control groups were as follows: (i) Untreated Disease Control—a group of STAM mice injected with streptozotocin (STZ, Sigma-Aldrich, USA) at 2 days old, and fed a high fat diet (HFD, 57 kcal % fat, Cat #HFD32, CLEA Japan, Japan) starting at 4 weeks old; and (ii) Positive Control—a group of STAM mice treated with telmisartan (10 mg/kg QD from 7 to 9 weeks). In addition to these control groups, test groups of STAM mice treated with a low dose of ubenimex (5 mg/kg ubenimex BID from 7 to 9 weeks) or a high dose of ubenimex (25 mg/kg BID from 7 to 9 weeks), were included in the study. The low dose is equivalent to a human dose of 30 mg BID. The high dose is equivalent to a human dose of 150 mg BID. The viability, clinical signs and behavior were monitored daily, including body weight, signs of toxicity, moribundity and mortality. The mice were maintained in a SPF facility under controlled conditions of temperature (23±2° C.), humidity (45±10%), lighting (12-hour artificial light and dark cycles; light from 8:00 to 20:00) and air exchange. A high pressure was maintained in the experimental room to prevent contamination of the facility. The mice were housed in TPX cages (CLEA Japan) with a maximum of 4 mice per case.
# (§3) All groups of mice were sacrificed at 9 weeks. Once sacrificed, the body weight of each mouse was recorded. The liver of each mouse was removed and weighed. The liver-to-body weight ratio was determined for each mouse. Blood serum levels of CK-18, ALT, and liver triglycerides were determined for each mouse. The livers were then sectioned and stained with hematoxylin and eosin (“HE”) stain, as well as Sirius red staining, to determine liver steatosis (ballooning) and fibrosis, respectively.
# [2] = test system: STAM mouse model for NASH; test: NAFLD Activity Score by HE staining, STAM mouse NASH model (Example 1); format: in vivo; conditions: for Hepatocyte ballooning score 0, number of mice: score 0 = None; for Steatosis score 1, number of mice: score 1 = 5-33%; for Hepatocyte ballooning score 1, number of mice: score 1 = Few balloon cells; for Lobular inflammation score 2, number of mice: score 2 = 2-4 foci/200x; for Lobular inflammation score 3, number of mice: score 3 = >4 foci/200x
# Excerpt: as §1, §2, §3
# [3] = test system: STAM mouse model for NASH; test: Biochemistry: plasma ALT and liver triglyceride, STAM mouse NASH model (Example 1); format: in vivo; conditions: 7 to 9 weeks of age
# Excerpt: as §1, §2, §3
# [4] = test system: STAM model of NASH fibrosis; test: Biochemistry: plasma ALT and liver triglyceride, STAM model of NASH with fibrosis (Example 3); format: in vivo, mouse
# Method: (§4) Ubenimex or telmisartan was administered orally in a volume at 10 mL/kg. Ubenimex was administered at a dose of 5 mg/kg once daily or twice daily. Telmisartan was administered at a dose of 5 mg/kg once daily.
# For plasma biochemistry, blood was collected in polypropylene tubes with anticoagulant (Novo-Heparin, Mochida Pharmaceutical Co. Ltd., Japan) and centrifuged at 1,000×g for 15 minutes at 4° C. The supernatant was collected and stored at −80° C. until use. Plasma ALT level was measured by FUJI DRI-CHEM 7000 (Fujifilm, Japan).
# Liver total lipid-extracts were obtained by Folch's method (Folch et al., J. Biol Chem, 1957, 226:497). Liver samples were homogenized in chloroform-methanol (2:1 v/v) and incubated overnight at room temperature. After washing with chloroform-methanol-water (8:4:3 v/v/v), the extracts were evaporated to dryness and dissolved in isopropanol. Liver triglyceride content was measured by Triglyceride E-test (Wako Pure Chemical Industries, Ltd., Japan).
# (§5) Study groups: The following study groups were used. Group 1 (Vehicle): 8 NASH mice were orally administered vehicle (RO water) in a volume of 10 mL/kg twice daily from 6 to 11 weeks of age. Group 2 (Ubenimex QD for 5 weeks): 8 NASH mice were orally administered vehicle supplemented with ubenimex at a dose of 5 mg/kg once daily from 6 to 11 weeks of age. Group 3 (Ubenimex BID for 5 weeks): 8 NASH mice were orally administered vehicle supplemented with ubenimex at a dose of 5 mg/kg twice daily from 6 to 11 weeks of age. Group 4 (Ubenimex BID for 2 weeks): 8 NASH mice were orally administered vehicle supplemented with ubenimex at a dose of 5 mg/kg twice daily from 9 to 11 weeks of age. Group 5 (Telmisartan for 5 weeks): 8 NASH mice were orally administered pure water supplemented with telmisartan at a dose of 5 mg/kg once daily from 6 to 11 weeks of age.
# [5] = test system: STAM model of NASH fibrosis; test: NAFLD Activity Score by HE staining, STAM model of NASH with fibrosis (Example 3); format: in vivo, mouse; conditions: for Steatosis score 0, number of mice: score 0 = <5%; for Hepatocyte ballooning score 0, number of mice: score 0 = None; for Steatosis score 1, number of mice: score 1 = 5-33%; for Hepatocyte ballooning score 1, number of mice: score 1 = Few balloon cells; for Lobular inflammation score 2, number of mice: score 2 = 2-4 foci/200x; for Steatosis score 2, number of mice: score 2 = >33-66%; for Hepatocyte ballooning score 2, number of mice: score 2 = Many cells/prominent ballooning; for Lobular inflammation score 3, number of mice: score 3 = >4 foci/200x
# Method: as §4
# For HE staining, sections were cut from paraffin blocks of liver tissue prefixed in Bouin's solution and stained with Lillie-Mayer's hematoxylin (Muto Pure Chemicals Co., Ltd., Japan) and eosin solution (Wako Pure Chemical Industries, Ltd., Japan). NAFLD Activity Score (NAS) was calculated according to the criteria of Kleiner (Kleiner et al., Hepatology, 2005, 41:1313). To visualize collagen deposition, Bouin's fixed liver sections were stained using picro-Sirius red solution (Waldeck, Germany). For quantitative analysis of fibrosis area, bright field images of Sirius red-staining sections were captured around the central vein using a digital camera (DFC295; Leica, Germany) at 200-fold magnification, and the positive areas in 5 fields/section were measured using ImageJ software (National Institutes of Health, USA).
# Statistical tests: Statistical analyses were performed using Bonferroni Multiple Comparison Test on GraphPad Prism 6 (GraphPad Software Inc., USA). P values <0.05 were considered statistically significant. A trend or tendency was assumed when a one-tailed t-test returned P values <0.1. Results were expressed as mean±SD.
# as §5
# [6] = test system: STAM mouse model for NASH; test: Fibrosis area by Sirius red staining, STAM mouse NASH model (Example 1); format: in vivo; conditions: 7 to 9 weeks of age
# Excerpt: as §1, §2, §3
# [7] = ubenimex 5 mg/kg BID, 7 to 9 weeks of age
# [8] = ubenimex 25 mg/kg BID, 7 to 9 weeks of age
# [9] = ubenimex 5 mg/kg BID oral, 6 to 11 weeks of age
# [10] = ubenimex 5 mg/kg BID oral, 9 to 11 weeks of age
# [11] = ubenimex 5 mg/kg QD oral, 6 to 11 weeks of age
smiles,measurement,setting,value
"CC(C)C[C@H](NC(=O)[C@@H](O)[C@H](N)Cc1ccccc1)C(=O)O [Ubenimex, (2S)-2-[[(2S,3R)-3-amino-2-hydroxy-4-phenylbutanoyl]amino]-4-methylpentanoic acid]",Plasma CK-18,"[1]; high dose ubenimex group (25 mg/kg BID, 7 to 9 weeks)",230.8±28.6 mIU/mL
same,Plasma CK-18,"[1]; low dose ubenimex group (5 mg/kg BID, 7 to 9 weeks)",238.5±7.7 mIU/mL
same,Hepatocyte ballooning compared with the control group,"[2]; high and low dose ubenimex groups (25 and 5 mg/kg BID, 7 to 9 weeks)",significantly decreased
same,"Steatosis score 0, number of mice","[2]; score 0 = <5%, ubenimex 5 mg/kg BID, 7 to 9 weeks of age",1
same,"Hepatocyte ballooning score 0, number of mice",[2]; [7],4
same,"Hepatocyte ballooning score 0, number of mice",[2]; [8],5
same,"Steatosis score 1, number of mice",[2]; [7],5
same,"Steatosis score 1, number of mice",[2]; [8],7
same,"Lobular inflammation score 1, number of mice","[2]; score 1 = <2 foci/200x, ubenimex 5 mg/kg BID, 7 to 9 weeks of age",1
same,"Hepatocyte ballooning score 1, number of mice",[2]; [7],2
same,"Hepatocyte ballooning score 1, number of mice",[2]; [8],2
same,"Lobular inflammation score 2, number of mice",[2]; [7],3
same,"Lobular inflammation score 2, number of mice",[2]; [8],5
same,"Lobular inflammation score 3, number of mice",[2]; [7],2
same,"Lobular inflammation score 3, number of mice",[2]; [8],2
same,NAS (mean ± SD),[2]; [7],3.3 ± 0.5
same,NAS (mean ± SD),[2]; [8],3.6 ± 0.5
same,Liver triglyercide (mean ± SD),[3]; ubenimex 5 mg/kg BID,50.0 ± 22.7 mg/g liver
same,Plasma ALT (mean ± SD),[3]; ubenimex 5 mg/kg BID,59 ± 22 U/L
same,Liver triglyercide (mean ± SD),[3]; ubenimex 25 mg/kg BID,34.8 ± 22.2 mg/g liver
same,Plasma ALT (mean ± SD),[3]; ubenimex 25 mg/kg BID,62 ± 11 U/L
same,Liver triglyceride (mean ± SD),[4]; [9],59.6 ± 21.4 mg/g liver
same,Plasma ALT (mean ± SD),[4]; [9],52 ± 21 U/L
same,Liver triglyceride (mean ± SD),[4]; [10],62.0 ± 33.5 mg/g liver
same,Plasma ALT (mean ± SD),[4]; [10],47 ± 24 U/L
same,Liver triglyceride (mean ± SD),[4]; [11],58.6 ± 24.4 mg/g liver
same,Plasma ALT (mean ± SD),[4]; [11],85 ± 64 U/L
same,"Steatosis score 0, number of mice",[5]; [9],1
same,"Steatosis score 0, number of mice",[5]; [10],1
same,"Hepatocyte ballooning score 0, number of mice",[5]; [9],5
same,"Hepatocyte ballooning score 0, number of mice",[5]; [10],4
same,"Hepatocyte ballooning score 0, number of mice",[5]; [11],2
same,"Steatosis score 1, number of mice",[5]; [9],4
same,"Steatosis score 1, number of mice",[5]; [10],4
same,"Steatosis score 1, number of mice",[5]; [11],6
same,"Lobular inflammation score 1, number of mice","[5]; score 1 = <2 foci/200x, ubenimex 5 mg/kg QD oral, 6 to 11 weeks of age",1
same,"Hepatocyte ballooning score 1, number of mice",[5]; [10],1
same,"Hepatocyte ballooning score 1, number of mice",[5]; [11],4
same,"Lobular inflammation score 2, number of mice",[5]; [9],2
same,"Lobular inflammation score 2, number of mice",[5]; [10],4
same,"Lobular inflammation score 2, number of mice",[5]; [11],3
same,"Steatosis score 2, number of mice",[5]; [9],1
same,"Steatosis score 2, number of mice",[5]; [10],1
same,"Hepatocyte ballooning score 2, number of mice",[5]; [9],1
same,"Hepatocyte ballooning score 2, number of mice",[5]; [10],1
same,"Lobular inflammation score 3, number of mice",[5]; [9],4
same,"Lobular inflammation score 3, number of mice",[5]; [10],2
same,"Lobular inflammation score 3, number of mice",[5]; [11],2
same,NAS (mean ± SD),[5]; [9],4.0 ± 1.7
same,NAS (mean ± SD),[5]; [10],3.8 ± 1.0
same,NAS (mean ± SD),[5]; [11],3.8 ± 0.8
same,"Sirius red-positive area (fibrosis area, mean ± SD)",[6]; ubenimex 5 mg/kg BID,0.80 ± 0.16%
same,"Sirius red-positive area (fibrosis area, mean ± SD)",[6]; ubenimex 25 mg/kg BID,1.05 ± 0.14%
